Legend:
Experiment in all cases: radiometric filter-binding kinase assay
[1] = tested on: AKT2 (human), P31751 [S474D]
CAMKK2 (human) = CAMKK2 (human) (UniProt Q96RR4)
CSK (human) = CSK (human) (UniProt P41240)
INSRR (human) = INSRR (human) (UniProt P14616)
MAP2K1 (human) = MAP2K1 (human) (UniProt Q02750)
MAP2K2 (human) = MAP2K2 (human) (UniProt P36507)
MAP3K1 (human) = MAP3K1 (human) (UniProt Q13233)
MAP3K11 (human) = MAP3K11 (human) (UniProt Q16584)
MAP3K5 (human) = MAP3K5 (human) (UniProt Q99683); conditions: compound 10.0 µM
MAP3K7 (human) = MAP3K7 (human) (UniProt O43318)
MAPK10 (human) = MAPK10 (human) (UniProt P53779)
MAPK11 (human) = MAPK11 (human) (UniProt Q15759)
MAPK15 (human) = MAPK15 (human) (UniProt Q8TD08)
MARK1 (human) = MARK1 (human) (UniProt Q9P0L2)
MARK3 (human) = MARK3 (human) (UniProt P27448)
MKNK1 (human) = MKNK1 (human) (UniProt Q9BUB5)
MKNK2 (human) = MKNK2 (human) (UniProt Q9HBH9)
NEK2 (human) = NEK2 (human) (UniProt P51955)
NEK6 (human) = NEK6 (human) (UniProt Q9HC98)
PAK4 (human) = PAK4 (human) (UniProt O96013)
PAK6 (human) = PAK6 (human) (UniProt Q9NQU5)
PDGFRA (human) = PDGFRA (human) (UniProt P16234)
PHKG1 (human) = PHKG1 (human) (UniProt Q16816)
[2] = molecular target: PRKAA1 PRKAB2 PRKAG1 (human) (UniProt O43741+Q13131+P54619)
PRKCZ (human) = PRKCZ (human) (UniProt Q05513)
PTK6 (human) = PTK6 (human) (UniProt Q13882)
[3] = tested on: SGK1 (human), O00141 [S422D]
SRPK1 (human) = SRPK1 (human) (UniProt Q96SB4)
STK16 (human) = STK16 (human) (UniProt O75716)
TSSK1B (human) = TSSK1B (human) (UniProt Q9BXA7)
ULK2 (human) = ULK2 (human) (UniProt Q8IYT8)

Chain of MAPK11 (human) (Q15759 whole entry, looked up): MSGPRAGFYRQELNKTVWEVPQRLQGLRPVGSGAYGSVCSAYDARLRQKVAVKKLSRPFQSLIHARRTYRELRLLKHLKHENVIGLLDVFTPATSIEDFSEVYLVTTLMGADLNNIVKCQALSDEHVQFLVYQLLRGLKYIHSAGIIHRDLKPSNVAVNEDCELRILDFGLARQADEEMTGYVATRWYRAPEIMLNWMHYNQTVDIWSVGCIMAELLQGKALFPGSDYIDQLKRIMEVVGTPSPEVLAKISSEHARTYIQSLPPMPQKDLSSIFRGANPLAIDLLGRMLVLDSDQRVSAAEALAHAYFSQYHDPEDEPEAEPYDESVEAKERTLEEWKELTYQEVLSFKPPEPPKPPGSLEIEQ
Chain of MARK1 (human) (Q9P0L2 whole entry, looked up): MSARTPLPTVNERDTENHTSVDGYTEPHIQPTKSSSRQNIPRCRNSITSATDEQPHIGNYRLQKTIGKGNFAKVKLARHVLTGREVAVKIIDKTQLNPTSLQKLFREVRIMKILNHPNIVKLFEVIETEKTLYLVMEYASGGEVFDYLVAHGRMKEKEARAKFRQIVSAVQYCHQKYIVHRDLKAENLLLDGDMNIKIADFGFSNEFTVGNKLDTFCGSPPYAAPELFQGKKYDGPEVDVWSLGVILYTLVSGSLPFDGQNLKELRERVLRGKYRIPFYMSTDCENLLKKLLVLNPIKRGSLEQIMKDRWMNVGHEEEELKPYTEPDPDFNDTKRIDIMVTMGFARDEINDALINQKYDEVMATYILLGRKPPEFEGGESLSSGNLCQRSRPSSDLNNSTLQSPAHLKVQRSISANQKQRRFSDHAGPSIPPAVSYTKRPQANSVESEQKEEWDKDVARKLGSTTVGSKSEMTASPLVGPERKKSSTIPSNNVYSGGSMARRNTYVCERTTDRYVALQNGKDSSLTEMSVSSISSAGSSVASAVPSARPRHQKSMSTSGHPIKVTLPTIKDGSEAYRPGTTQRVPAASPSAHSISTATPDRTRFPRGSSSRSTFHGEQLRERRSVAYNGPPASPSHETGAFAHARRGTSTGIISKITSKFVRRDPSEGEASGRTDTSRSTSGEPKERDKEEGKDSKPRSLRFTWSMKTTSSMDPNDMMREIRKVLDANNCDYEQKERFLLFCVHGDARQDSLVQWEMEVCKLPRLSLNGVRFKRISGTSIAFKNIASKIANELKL
Chain of PRKCZ (human) (Q05513 whole entry, looked up): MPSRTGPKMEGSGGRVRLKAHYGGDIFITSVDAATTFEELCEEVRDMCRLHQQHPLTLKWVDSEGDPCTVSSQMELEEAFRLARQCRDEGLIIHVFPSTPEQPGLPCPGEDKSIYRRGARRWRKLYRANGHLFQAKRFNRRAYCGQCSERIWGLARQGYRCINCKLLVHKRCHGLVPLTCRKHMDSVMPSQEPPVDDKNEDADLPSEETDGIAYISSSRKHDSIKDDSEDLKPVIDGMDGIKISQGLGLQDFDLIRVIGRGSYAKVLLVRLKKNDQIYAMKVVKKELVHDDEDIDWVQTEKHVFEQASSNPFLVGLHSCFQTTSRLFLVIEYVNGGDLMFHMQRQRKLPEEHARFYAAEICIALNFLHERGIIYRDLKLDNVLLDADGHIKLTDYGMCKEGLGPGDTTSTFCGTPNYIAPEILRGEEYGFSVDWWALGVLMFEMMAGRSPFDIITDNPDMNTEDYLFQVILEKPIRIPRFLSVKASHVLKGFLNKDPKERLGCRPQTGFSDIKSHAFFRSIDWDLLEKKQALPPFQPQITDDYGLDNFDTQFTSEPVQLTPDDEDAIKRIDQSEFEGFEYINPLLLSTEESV
Chain of MAPK10 (human) (P53779 whole entry, looked up): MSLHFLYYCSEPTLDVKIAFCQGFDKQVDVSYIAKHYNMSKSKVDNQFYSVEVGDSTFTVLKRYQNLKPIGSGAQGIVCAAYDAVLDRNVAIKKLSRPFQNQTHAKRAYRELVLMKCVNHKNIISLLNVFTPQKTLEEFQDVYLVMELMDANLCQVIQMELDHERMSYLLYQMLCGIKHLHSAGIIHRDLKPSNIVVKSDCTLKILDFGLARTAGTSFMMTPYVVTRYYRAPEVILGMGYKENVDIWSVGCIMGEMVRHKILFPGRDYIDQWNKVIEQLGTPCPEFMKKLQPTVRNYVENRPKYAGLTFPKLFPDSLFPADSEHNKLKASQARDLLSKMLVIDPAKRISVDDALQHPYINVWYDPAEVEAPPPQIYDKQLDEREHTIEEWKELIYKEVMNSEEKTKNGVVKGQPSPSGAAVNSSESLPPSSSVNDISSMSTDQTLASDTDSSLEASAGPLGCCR
Chain of MAP2K2 (human) (P36507 whole entry, looked up): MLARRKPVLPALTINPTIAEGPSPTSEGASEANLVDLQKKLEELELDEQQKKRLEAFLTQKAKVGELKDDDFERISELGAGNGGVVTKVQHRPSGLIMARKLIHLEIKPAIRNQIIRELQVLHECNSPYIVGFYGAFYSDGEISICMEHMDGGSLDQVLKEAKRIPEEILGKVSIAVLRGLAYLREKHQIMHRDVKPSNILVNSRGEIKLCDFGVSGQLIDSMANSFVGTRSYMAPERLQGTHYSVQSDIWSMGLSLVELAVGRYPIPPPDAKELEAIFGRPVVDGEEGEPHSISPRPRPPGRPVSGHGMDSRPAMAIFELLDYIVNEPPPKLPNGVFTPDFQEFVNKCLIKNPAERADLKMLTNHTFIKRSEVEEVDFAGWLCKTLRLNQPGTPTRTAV
Chain of AKT2 (human), P31751 [S474D] (P31751 whole entry S474D, looked up): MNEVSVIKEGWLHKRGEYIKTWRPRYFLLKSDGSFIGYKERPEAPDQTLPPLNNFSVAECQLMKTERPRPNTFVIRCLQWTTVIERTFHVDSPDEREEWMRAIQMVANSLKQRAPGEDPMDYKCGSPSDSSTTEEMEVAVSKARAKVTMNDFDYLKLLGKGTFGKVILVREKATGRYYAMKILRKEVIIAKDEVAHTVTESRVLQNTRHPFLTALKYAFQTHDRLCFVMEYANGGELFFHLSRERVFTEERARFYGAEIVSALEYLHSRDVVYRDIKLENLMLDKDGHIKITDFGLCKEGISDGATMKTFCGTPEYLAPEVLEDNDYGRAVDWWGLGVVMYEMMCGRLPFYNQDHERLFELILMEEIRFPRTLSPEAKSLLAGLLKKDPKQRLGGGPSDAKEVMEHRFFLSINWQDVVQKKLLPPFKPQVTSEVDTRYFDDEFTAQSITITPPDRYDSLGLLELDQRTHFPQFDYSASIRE
Chain of MKNK2 (human) (Q9HBH9 whole entry, looked up): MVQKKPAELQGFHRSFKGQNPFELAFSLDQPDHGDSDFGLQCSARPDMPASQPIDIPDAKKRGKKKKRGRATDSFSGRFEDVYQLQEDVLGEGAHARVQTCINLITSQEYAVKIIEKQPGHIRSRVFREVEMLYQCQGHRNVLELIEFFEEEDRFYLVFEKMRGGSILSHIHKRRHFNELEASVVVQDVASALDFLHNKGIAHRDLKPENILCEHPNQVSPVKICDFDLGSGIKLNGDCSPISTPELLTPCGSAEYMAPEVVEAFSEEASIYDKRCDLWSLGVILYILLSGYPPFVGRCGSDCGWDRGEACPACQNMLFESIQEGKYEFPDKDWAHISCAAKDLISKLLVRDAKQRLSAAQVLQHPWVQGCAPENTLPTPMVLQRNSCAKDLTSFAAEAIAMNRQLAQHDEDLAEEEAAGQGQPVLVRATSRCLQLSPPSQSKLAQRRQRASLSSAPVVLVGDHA
Chain of NEK2 (human) (P51955 whole entry, looked up): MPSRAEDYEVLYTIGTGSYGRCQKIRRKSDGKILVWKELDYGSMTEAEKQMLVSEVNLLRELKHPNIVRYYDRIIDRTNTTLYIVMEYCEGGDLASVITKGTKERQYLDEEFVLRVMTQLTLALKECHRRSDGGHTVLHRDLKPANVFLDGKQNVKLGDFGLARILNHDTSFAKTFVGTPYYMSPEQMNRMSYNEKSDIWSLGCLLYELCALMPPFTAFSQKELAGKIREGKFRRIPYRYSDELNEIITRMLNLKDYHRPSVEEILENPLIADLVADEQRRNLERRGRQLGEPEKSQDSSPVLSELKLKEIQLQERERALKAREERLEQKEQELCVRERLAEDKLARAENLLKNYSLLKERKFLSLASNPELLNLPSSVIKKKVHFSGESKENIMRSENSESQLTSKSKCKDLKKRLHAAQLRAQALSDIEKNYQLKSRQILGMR
Chain of PTK6 (human) (Q13882 whole entry, looked up): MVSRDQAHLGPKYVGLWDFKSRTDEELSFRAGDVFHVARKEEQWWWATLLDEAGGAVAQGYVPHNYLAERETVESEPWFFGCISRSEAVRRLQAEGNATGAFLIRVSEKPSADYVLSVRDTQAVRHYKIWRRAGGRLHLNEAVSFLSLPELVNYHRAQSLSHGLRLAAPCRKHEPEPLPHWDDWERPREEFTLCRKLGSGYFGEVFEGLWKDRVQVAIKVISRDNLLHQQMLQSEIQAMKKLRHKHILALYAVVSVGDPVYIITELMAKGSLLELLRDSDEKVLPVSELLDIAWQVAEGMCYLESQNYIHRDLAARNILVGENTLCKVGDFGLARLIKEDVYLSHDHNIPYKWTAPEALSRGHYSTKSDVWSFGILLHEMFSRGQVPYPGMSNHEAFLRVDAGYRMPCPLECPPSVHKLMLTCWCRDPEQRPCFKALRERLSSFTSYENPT
Chain of MKNK1 (human) (Q9BUB5 whole entry, looked up): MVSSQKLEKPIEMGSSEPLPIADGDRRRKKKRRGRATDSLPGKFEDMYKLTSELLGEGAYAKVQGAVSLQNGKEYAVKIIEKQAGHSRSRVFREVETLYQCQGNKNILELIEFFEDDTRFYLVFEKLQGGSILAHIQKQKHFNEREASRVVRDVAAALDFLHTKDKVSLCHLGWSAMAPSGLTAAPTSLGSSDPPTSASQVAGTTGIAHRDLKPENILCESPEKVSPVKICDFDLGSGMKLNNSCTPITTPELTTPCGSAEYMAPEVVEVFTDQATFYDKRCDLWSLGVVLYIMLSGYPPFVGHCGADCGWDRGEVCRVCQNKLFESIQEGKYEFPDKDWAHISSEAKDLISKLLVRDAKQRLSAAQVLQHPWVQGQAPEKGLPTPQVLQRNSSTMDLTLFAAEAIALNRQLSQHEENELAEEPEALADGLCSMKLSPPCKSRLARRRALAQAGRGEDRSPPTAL

CNc1nc(Nc2ccc(C(=O)N3CCOCC3)cc2OC)ncc1Cl
residual activity ([1]; compound 1.0 µM): 95% | residual activity ([1]; compound 10.0 µM): 64% | residual activity (CAMKK2 (human); compound 1.0 µM): 52% | residual activity (CAMKK2 (human); compound 10.0 µM): 31% | residual activity (CSK (human); compound 1.0 µM): 97% | residual activity (CSK (human); compound 10.0 µM): 103% | residual activity (INSRR (human); compound 1.0 µM): 126% | residual activity (INSRR (human); compound 10.0 µM): 97% | residual activity (MAP2K1 (human); compound 1.0 µM): 106% | residual activity (MAP2K1 (human); compound 10.0 µM): 93% | residual activity (MAP2K2 (human); compound 1.0 µM): 91% | residual activity (MAP2K2 (human); compound 10.0 µM): 86% | residual activity (MAP3K1 (human); compound 1.0 µM): 93% | residual activity (MAP3K1 (human); compound 10.0 µM): 98% | residual activity (MAP3K11 (human); compound 1.0 µM): 75% | residual activity (MAP3K11 (human); compound 10.0 µM): 43% | residual activity (MAP3K5 (human)): 54% | residual activity (MAP3K7 (human); compound 1.0 µM): 74% | residual activity (MAP3K7 (human); compound 10.0 µM): 25% | residual activity (MAPK10 (human); compound 1.0 µM): 60% | residual activity (MAPK10 (human); compound 10.0 µM): 29% | residual activity (MAPK11 (human); compound 1.0 µM): 57% | residual activity (MAPK11 (human); compound 10.0 µM): 93% | residual activity (MAPK15 (human); compound 1.0 µM): 74% | residual activity (MAPK15 (human); compound 10.0 µM): 82% | residual activity (MARK1 (human); compound 1.0 µM): 91% | residual activity (MARK1 (human); compound 10.0 µM): 84% | residual activity (MARK3 (human); compound 1.0 µM): 91% | residual activity (MARK3 (human); compound 10.0 µM): 78% | residual activity (MKNK1 (human); compound 1.0 µM): 71% | residual activity (MKNK1 (human); compound 10.0 µM): 44% | residual activity (MKNK2 (human); compound 1.0 µM): 20% | residual activity (MKNK2 (human); compound 10.0 µM): 7% | residual activity (NEK2 (human); compound 1.0 µM): 63% | residual activity (NEK2 (human); compound 10.0 µM): 90% | residual activity (NEK6 (human); compound 1.0 µM): 73% | residual activity (NEK6 (human); compound 10.0 µM): 69% | residual activity (PAK4 (human); compound 1.0 µM): 87% | residual activity (PAK4 (human); compound 10.0 µM): 84% | residual activity (PAK6 (human); compound 1.0 µM): 90% | residual activity (PAK6 (human); compound 10.0 µM): 98% | residual activity (PDGFRA (human); compound 1.0 µM): 79% | residual activity (PDGFRA (human); compound 10.0 µM): 56% | residual activity (PHKG1 (human); compound 1.0 µM): 68% | residual activity (PHKG1 (human); compound 10.0 µM): 23% | residual activity ([2]; compound 1.0 µM): 91% | residual activity ([2]; compound 10.0 µM): 71% | residual activity (PRKCZ (human); compound 1.0 µM): 99% | residual activity (PRKCZ (human); compound 10.0 µM): 101% | residual activity (PTK6 (human); compound 1.0 µM): 56% | residual activity (PTK6 (human); compound 10.0 µM): 39% | residual activity ([3]; compound 1.0 µM): 94% | residual activity ([3]; compound 10.0 µM): 91% | residual activity (SRPK1 (human); compound 1.0 µM): 96% | residual activity (SRPK1 (human); compound 10.0 µM): 94% | residual activity (STK16 (human); compound 1.0 µM): 100% | residual activity (STK16 (human); compound 10.0 µM): 97% | residual activity (TSSK1B (human); compound 1.0 µM): 51% | residual activity (TSSK1B (human); compound 10.0 µM): 19% | residual activity (ULK2 (human); compound 1.0 µM): 97% | residual activity (ULK2 (human); compound 10.0 µM): 84%
